# How the values were obtained:
# [1] = test system: noncancerous NCM460 cell line derived from normal colon epithelial mucosa; details: read-out: IC50 in noncancerous cell line NCM460; Sulforhodamine B, 48 h
# Description: (§1) The noncancerous NCM460 cell line derived from normal colon epithelial mucosa, was obtained from INCELL's (Moyer et al., 1996), and the colorectal cancer derived cell lines, SW480, LS174T and RKO, were obtained from American Type Culture Collection (ATCC). All cell lines were maintained at 37° C. under a humidified atmosphere containing 5% CO2. NCM460 and SW480 cells were grown in RPMI medium and LS174T and RKO cells in DMEM, all supplemented with 10% FBS and 1% penicillin/streptomycin. SW480 cell were seeded normally at a concentration of 1×10^5 cells/ml except for some specific assays.
# (§2) After 48 h of treatment, Sulforhodamine B was performed as previously described (Côrte-Real et al., 2019). Results were expressed relatively to the negative control (1), which was considered as 100% of cell growth.
# (§3) Values represent mean+SD of at least three independent experiments.
# SW480 CRC cell line = details: read-out: IC50 in SW480 CRC cell line; Sulforhodamine B, 48 h
# Description: as §1, §2, §3
# [2] = test system: KRAS, pAKT, total-AKT, pERK and total-ERK proteins, in SW480 cells; experiment: Western blot analysis, SW480 cells harboring KRAS mutation; type: cell-based; details: 48 h at the IC50 concentration of each compound, KRAS mutated
# Description: SW480 cells were exposed for 48 h, at the IC50 concentration of each compound before protein extraction and Western blot analysis.
# SW480 = details: IC50 value, 48 h
# Description: Acquisition was performed using CytoFLEX Cytometer (Beckman Coulter, Brea, CA, USA).
# The FIG. 4 illustrates the apoptotic cell death analysis.
# SW480 cell line [3] = experiment: Colony formation assay; details: 48 h with ¼ IC50 and ½ IC50, SW480
# Description: SW480 cell line was seeded, at a concentration of 500 cells/ml, in 6-well plates. […] The negative control cells were treated with DMSO 0.1%. […] Medium was renewed every 3 days. Nine days after removing the treatments, cells were stained as previously described (Côrte-Real, Karas, Brás, et al., 2019).
# The FIG. 1 illustrates the analysis of the colony formation ability, after 48 h of incubation with ¼ IC50 and ½ IC50, in SW480 cell line. […] The values represent mean±S.D. of at least three independent experiments. Statistical analysis was performed by one-way ANOVA with Dunnett's multiple comparisons test. ****P≤ 0.0001 compared with negative control.
# A2780 = details: read-out: IC50 A2780; ovarian cancer cell line; cited from earlier work
# MDA-MB-231 = details: read-out: IC50 MDA-MB-231 (PMC79); breast cancer cell line; cited from earlier work
# MCF7 = details: breast cancer cell line; cited from earlier work
# [4] = test system: proteins involved in MAPK and PI3K signaling pathways, in SW480 cells; details: SW480, 48 h, IC50 of PMC79
# Description: Samples were processed for LC-MS/MS analysis (Chiva et al. 2018; Olivella et al. 2021). Protein identification and validation, and gene ontology, localization and network analysis were performed as previously described (Perkins et al., 1999; Beer et al., 2017; Perez-Riverol et al., 2022).
# Values represent mean of at least three independent experiments.
# [5] = test system: KRAS, pAKT, total-AKT, pERK and total-ERK proteins in RKO cells; experiment: Western blot analysis, RKO cell line harboring wild-type KRAS; type: cell-based; details: 48 h with IC50 values
# SW480 cells = details: IC50 and 2×IC50, 48 h and 72 h
# Description: SW480 cells were incubated with the dye and seeded according to the procedure recommended by CFSE package insert (BD Horizon™). […] After 48 h and 72 h, both floating and attached cells were collected, washed with PBS, centrifuged at 500 rpm for 10 min and the pellet resuspended in PBS before cytometer acquisition.
# The effects on proliferation were also studied using carboxyfluorescein succinimidyl ester assay (CFSE). […] Thus, when cell proliferation is inhibited, we observe an increase of the intracellular fluorescence.
# The FIG. 3 illustrates the quantification of CFSE median fluorescence intensity normalized to T0 after 48 and 72 h of incubation with IC50 and 2×IC50, in SW480 cell line. The values represent mean±S.D. of at least three independent experiments. Statistical analysis was performed by two-way ANOVA with Dunnett's multiple comparisons test. **P≤0.01; ***P≤0.001; ****P≤0.0001 compared with negative control.
# breast cancer cell lines [6] = details: cited from earlier work
# [7] = test system: KRAS, pAKT, total-AKT, pERK and total-ERK proteins, in LS174T cells; details: 48 h of incubation, KRAS mutation
# Description: Preparation of total protein extracts of colorectal cancer cell lines (RKO, LS174T and SW480), SDS-PAGE and Western blots were performed as previously described (Alves et al., 2015).
# The Antibodies used were anti-KRAS and β-actin (Sigma); anti-phospho p44/42 MAPK (Thr202/Tyr204) (pERK), anti-p44/42 total (ERK), anti-phospho Akt (Ser473) (pAKT) and anti-Akt total (Cell Signaling) (AKT); GAPDH (Gene Tex). Proteomic study
# GAPDH immunoblot was used as a loading control. The results were obtained from at least three independent experiments.
# breast cancer cell lines [8] = details: cited from earlier work; remark: listed apart in the source
# SW480 cell line [9] = test system: SW480 cell line
# Description: SW480 cell line was seeded in 6-well plates. […] 24 h and 48 h later, cells were collected and processed according to the method described in (Teixeira et al., 2018). Cell-cycle phase data analysis and quantification was performed using FlowJo 10.7.2 software.
# SW480 cell line [10] = experiment: Wound healing assay; details: IC50 and 2×IC50, 12 h
# Description: SW480 cell line was seeded at a concentration of 7×10^5 cells/ml, in 6-well plates. […] The negative control cells were treated with DMSO 0.1%. Each condition was photographed at 0 h, 4 h, 8 h and 12 h. To analyze the data and measure the wound size at each time-point ImageJ 1.53a software was used.
# Values represent mean±S.D. of at least three independent experiments. Statistical analysis was performed by one-way ANOVA with Turkey's multiple comparisons test. *P≤0.05; ***P≤0.001 compared with negative control.
# SW480 cell line [11] = details: IC50 of PMC79, 48 h
# Description: After 48 h, cells were processed according with (Teixeira et al., 2018). Slides were maintained at −20° C. until visualization in a fluorescence microscope (Leica DM 5000B, Leica Microsystems, Wetzlar, Germany).
# DAPI ([…]), FITC (fluorescein isothiocyanate) and merged were obtained by fluorescence microscopy.
# SW480 cell line [12] = details: IC50 value, 48 h
# Description: SW480 cell line was seeded in 12-well plates with one coverslip per well. […] After 48 hours of incubation, the cells were fixed and stained as previously described (Pilon et al., 2020). Representative images were obtained in a fluorescence microscope (Olympus motorized BX63F Upright Microscope) (Olympus@, Tokyo, Japan) at a magnification of 600×.
# Representative images (×600) of DAPI (4′,6-diamidino-2-phenylindole), Phalloidin-AlexaFluor 568 and merged were obtained in a fluorescence microscope. The results were obtained from at least three independent experiments.
# breast cancer cell lines [13] = details: cited from earlier work; remark: listed apart in the source
structure (smiles),measurement,setting,value
"O=S(=O)([O-])C(F)(F)F.OCc1ccnc(-c2cc(CO)ccn2)c1.[Ru+2].c1cc[cH-]c1.c1ccc(P(c2ccccc2)c2ccccc2)cc1 [PMC79, ({2,2′-bipyridine}-4,4′-diyldimethanol-k^2N, N′)(η^5-cyclopentadienyl) (6riphenylphosphine) ruthenium (II) triflate]",IC50,[1],44 µM
same,IC50,SW480 CRC cell line,40 µM
same,"expression of KRAS, pERK, total-ERK, pAKT and total-AKT in SW480",[2],inhibit to a very high extent
same,necrotic cells (AV−/PI+),SW480,10%
same,percentage of apoptotic cells (AV+/PI−; AV+/PI+),SW480,74%
same,clonogenic ability (colony formation),SW480 cell line [3],significantly decreased the clonogenic ability
same,IC50,A2780,3.9 µM
same,IC50,MDA-MB-231,2.1 µM
same,IC50,MCF7,5.9 µM
same,"Abundance Ratio (log2): (pmc79)/(Control), AKT1",[4],−0.4039
same,"Abundance Ratio (log2): (pmc79)/(Control), AKT2",[4],−0.2506
same,"Abundance Ratio (log2): (pmc79)/(Control), EGFR",[4],−0.948
same,"Abundance Ratio (log2): (pmc79)/(Control), ERK1",[4],−0.3601
same,"Abundance Ratio (log2): (pmc79)/(Control), KRAS",[4],−0.4019
same,"Abundance Ratio (log2): (pmc79)/(Control), MEK1",[4],−0.5421
same,"Abundance Ratio (log2): (pmc79)/(Control), MEK2",[4],−0.2365
same,"Abundance Ratio (log2): (pmc79)/(Control), MTOR",[4],−1.326
same,"Abundance Ratio (log2): (pmc79)/(Control), PIK3C3",[4],−0.1795
same,"Abundance Ratio (log2): (pmc79)/(Control), PIK3R4",[4],−0.5555
same,abundance of all proteins involved in KRAS signaling pathways versus control,"[4]; EGFR, KRAS, MEK 1, MEK 2, ERK1, PIK3, AKT1, AKT2, MTOR",less abundant
same,"expression of KRAS, pERK, total-ERK, pAKT and total-AKT in RKO",[5],no effect
same,proliferation (CFSE median fluorescence intensity),SW480 cells,decrease in proliferation under all conditions
same,mitochondria morphology and actin cytoskeleton in breast cancer cell lines,breast cancer cell lines [6],induced alterations in mitochondria morphology
same,"expression of KRAS, pERK, total-ERK, pAKT and total-AKT in LS174T",[7],able to inhibit the expression
same,apoptosis (Annexin V stained cells) in breast cancer cell lines,breast cancer cell lines [8],induced apoptosis
same,cell cycle alteration at 24 h,"SW480 cell line [9]; IC50 of PMC79, 24 h",cell cycle arrest at G0/G1 phase
same,cell cycle alteration at 48 h,"SW480 cell line [9]; IC50 of PMC79, 48 h",increase of sub-G1 population
same,percentage of wound closure,SW480 cell line [10],decreased the percentage of wound closure in a dose-dependent manner
same,TUNEL positive cells,SW480 cell line [11],increase of the number of apoptotic cells (TUNEL positive)
same,F-actin organization and morphology,SW480 cell line [12],affect cell-cell adhesion and intercellular contacts establishment
same,proliferation / colony formation ability in breast cancer cell lines,breast cancer cell lines [13],inhibited proliferation by decreasing colony formation ability
"N.N.[Cl][Pt][Cl] [cisplatin, reference compound]","expression of KRAS, pERK, total-ERK, pAKT and total-AKT in SW480",[2],not observed
same,"expression of KRAS, pERK, total-ERK, pAKT and total-AKT in RKO",[5],The same was also observed

# Source: US20250186457A1, “USE OF AN ORGANOMETALLIC RUTHENIUM COMPOUND FOR THE PREVENTION AND/OR TREATMENT OF DISEASES AND/OR CONDITIONS RELATED TO CANCER IN AN INDIVIDUAL” (FACULDADE DE CIÊNCIAS DA UNIVERSIDADE DE LISBOA, priority 2022, published 2025)
